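Method: 48-hour compound exposure of cells in 96-well plates, five concentrations, linear interpolation of endpoints. Abbreviation: GI50, concentration required for 50% inhibition of growth. The concentration for full growth arrest is given as TGI.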
Tests used:
Assay in all cases: inhibition of tumour cell growth, NCI panel, 48 h
SK-MEL-5 melanoma = tested on: SK-MEL-5 melanoma
M14 melanoma = tested on: M14 melanoma
HOP-62 NSCLC = tested on: HOP-62 NSCLC
RXF 393 renal = tested on: RXF 393 renal
IGROV1 ovarian = tested on: IGROV1 ovarian
K-562 leukemia = tested on: K-562 leukemia
U251 CNS = tested on: U251 CNS
UACC-62 melanoma = tested on: UACC-62 melanoma
MCF7 breast = tested on: MCF7 breast
T-47D breast = tested on: T-47D breast

SMILES	TGI (SK-MEL-5 melanoma)	TGI (M14 melanoma)	TGI (HOP-62 NSCLC)	TGI (RXF 393 renal)	TGI (IGROV1 ovarian)	TGI (K-562 leukemia)	TGI (U251 CNS)	TGI (UACC-62 melanoma)	TGI (MCF7 breast)	TGI (T-47D breast)	GI50 (MCF7 breast)	GI50 (SK-MEL-5 melanoma)	GI50 (HOP-62 NSCLC)	GI50 (RXF 393 renal)	GI50 (T-47D breast)	GI50 (IGROV1 ovarian)	GI50 (K-562 leukemia)	GI50 (U251 CNS)	GI50 (UACC-62 melanoma)
CN(C)CC(C)(C)C(/C=C/c1ccccc1)=N\Nc1ccccc1	20.7 µM	20.3 µM	64.7 µM	32.8 µM	17.9 µM	0.828 µM	13.4 µM	1.07 µM											
Cc1cc(NS(=O)(=O)c2ccc(NC(=O)c3cccc4cc5ccccc5nc34)cc2)no1	30.3 µM	43 µM	66.4 µM	29.1 µM	64.8 µM	50.6 µM	75.5 µM	48.5 µM											
Cc1ccc([N+](=O)[O-])cc1NC(=O)C(=O)Cc1cc(=O)oc2cc(O)ccc12	> 100 µM	> 100 µM	> 100 µM	> 100 µM	> 100 µM	> 100 µM	> 100 µM	> 100 µM											
COc1ccc(CC2NCCc3cc(OC)c(OC)cc32)cc1 (configuration not stated)	> 100 µM	> 100 µM	> 100 µM	> 100 µM	> 100 µM		> 100 µM	> 100 µM											
O=C1SC(c2ccccc2)(c2ccccc2)c2ccccc21	> 100 µM	> 100 µM	> 100 µM	> 100 µM	> 100 µM	> 100 µM	> 100 µM	> 100 µM											
CCCC(=O)Nc1cc([N+](=O)[O-])c([N+](=O)[O-])cc1OC	30.2 µM	25.6 µM	28.1 µM		38.9 µM	> 100 µM	29.8 µM	33.7 µM	> 100 µM	19.4 µM									
Nc1ccc(C(=O)NN2C(=O)C(Cl)C2c2ccc([N+](=O)[O-])cc2)cc1 (configuration not stated)	28.8 µM	26.5 µM	23.2 µM		16.6 µM	36.2 µM	5.28 µM	24.7 µM											
Cc1cc(O)ccc1O	> 100 µM		> 100 µM	29.1 µM	31 µM	48.1 µM	> 100 µM	81.3 µM	69.8 µM	60.8 µM	19 µM	62 µM	34.8 µM	15.5 µM	18.2 µM	16.6 µM	13.8 µM	32.8 µM	17.9 µM
COCOCc1cc(OCc2ccccc2)c(OC)cc1Br	> 100 µM		> 100 µM	> 100 µM	> 100 µM	> 100 µM	> 100 µM	> 100 µM											
CCCCCCCCCCCCSC(=NC)NC	2.85 µM		4.59 µM	4.15 µM	5.83 µM	6.35 µM		3.21 µM		4.77 µM		1.48 µM	1.94 µM	1.89 µM	2.04 µM	2.52 µM	1.95 µM		1.68 µM
CC(=O)OC1(C#N)CC2OC1C1C2N1C(=O)OC(C)(C)C (configuration not stated)	> 100 µM	> 100 µM	> 100 µM	> 100 µM	> 100 µM	> 100 µM	> 100 µM	> 100 µM											
